Test results taken from US20110070213A1, “DERMAL COMPOSITIONS CONTAINING COENZYME Q AS THE ACTIVE INGREDIENT” (KANEKA CORPORATION, priority 2000, published 2011).

Columns and labels:
[1] = Percutaneous absorption test (coenzyme Q10 in skin after dermal application); format: in vivo, hairless rats; conditions: for Coenzyme Q10 concentration in skin / Reduced coenzyme Q10 concentration in skin: mean ± SD
Method: The test sample 1 and comparative sample 1 were used as test substances. The test was carried out using male hairless rats (weighing 250 to 300 g) fed under well-fed conditions. A 0.1-g portion of the test sample 1, comparative sample 1, or PEG 1500 as a control was applied to an area of 3 cm square on the back of each hairless rat lightly anesthetized with ether. Three hours, 8 hours or 24 hours after application, the rat was sacrificed by euthanasia, the applied area was washed thoroughly, and a skin sample was taken. The skin sample was homogenized and extracted with propanol, the extract was concentrated using a solid phase column, and the amount of coenzyme Q10 in the skin was determined by high-performance liquid chromatography.
Each of the skin samples mentioned above was homogenized and extracted with hexane, the extract was evaporated to dryness and dissolved in ethanol, and the proportion of reduced coenzyme Q10 in skin was determined by high-performance liquid chromatography with an electrochemical detector. Each numerical value means the mean±standard deviation.
The test was carried out in the same manner as in Example 1 using the test samples 2, 3, 4 and 5 as well as the comparative sample 1 as test samples.
In FIG. 1, the vertical axis denotes the total amount of coenzyme Q10 and the amount of reduced coenzyme Q10 in skin at 3 hours after application, and the horizontal axis denotes the content (% by weight) of reduced coenzyme Q10 relative to the total amount of coenzyme Q10 in the sample applied. Each bar indicates the mean value.

incision wound = experiment: Incised wound healing test in rats; format: in vivo, SD rats; conditions: 1% ointment, 0.2 g/day for 4 days; four days after incision
Text: SD rats (male, 12-week-old) were clipped of hairs and divided into groups of 10 animals to make the mean body weights of the groups roughly the same, and subjected to the test. Each animal was given an incision wound along the median line under diethyl ether anesthesia. The incision wound was stapled at three sites using Michel's clips, and a 1% oxidized coenzyme Q10 ointment or a 1% reduced coenzyme Q10 ointment was applied at a dose of 0.2 g/day for 4 days. Two control groups, namely a nontreated group and an ointment base group treated with the same dose of the ointment base, were used. Three days after incision, the Michel's clips were removed and, four days after incision, each animal was euthanized by overanesthesia with diethyl ether, the skin around the incision was peeled off, and skin sections were prepared. The skin sections were measured for tension on a tensile tester.

[2] = as compared with 100% oxidized coenzyme Q10

Row | Structure (SMILES) | Coenzyme Q10 concentration in skin, relative value in parentheses (oxidized coenzyme Q10 = 100) ([1]; 3 hr) | Reduced coenzyme Q10 concentration in skin, relative value in parentheses (oxidized coenzyme Q10 = 100) ([1]; 3 hr) | Coenzyme Q10 concentration in skin ([1]; 3 hr after application of 0.1 g PEG 1500 ointment (0.1 g coenzyme Q10 per 10 ml) to 3 cm square back skin) [µg/g] | Reduced coenzyme Q10 concentration in skin ([1]; 3 hr after application, HPLC with electrochemical detector) [µg/g] | Coenzyme Q10 concentration in skin, relative value in parentheses (oxidized coenzyme Q10 = 100) ([1]; 8 hr) | Reduced coenzyme Q10 concentration in skin, relative value in parentheses (oxidized coenzyme Q10 = 100) ([1]; 8 hr) | Coenzyme Q10 concentration in skin ([1]; 8 hr after application of 0.1 g PEG 1500 ointment to back skin) [µg/g] | Reduced coenzyme Q10 concentration in skin ([1]; 8 hr after application) [µg/g] | Coenzyme Q10 concentration in skin, relative value in parentheses (oxidized coenzyme Q10 = 100) ([1]; 24 hr) | Reduced coenzyme Q10 concentration in skin, relative value in parentheses (oxidized coenzyme Q10 = 100) ([1]; 24 hr) | Coenzyme Q10 concentration in skin ([1]; 24 hr after application of 0.1 g PEG 1500 ointment to back skin) [µg/g] | Reduced coenzyme Q10 concentration in skin ([1]; 24 hr after application) [µg/g] | Increase of the amount of coenzyme Q10 in skin (in words) [1, 2] | Increase of the amount of reduced coenzyme Q10 in skin (in words) [1, 2] | Skin repair (tension of skin sections on a tensile tester, in words) (incision wound)
1 | COc1c(O)c(C)c(C/C=C(\C)CC/C=C(\C)CC/C=C(\C)CC/C=C(\C)CC/C=C(\C)CC/C=C(\C)CC/C=C(\C)CC/C=C(\C)CC/C=C(\C)CCC=C(C)C)c(O)c1OC [Reduced coenzyme Q10, reduced coenzyme Q10] | (165***) | (414***) | 13.72 ± 0.70 | 12.55 ± 0.51 | (228*) | (317**) | 17.96 ± 4.85 | 15.84 ± 4.56 | (206*) | (239*) | 15.68 ± 3.95 | 12.99 ± 4.81 | very effective in increasing the amount of coenzyme Q10 in skin | very effective in increasing the amount of reduced coenzyme Q10 in skin | skin repair promoting effect
2 | COC1=C(OC)C(=O)C(C/C=C(\C)CC/C=C(\C)CC/C=C(\C)CC/C=C(\C)CC/C=C(\C)CC/C=C(\C)CC/C=C(\C)CC/C=C(\C)CC/C=C(\C)CCC=C(C)C)=C(C)C1=O [Oxidized coenzyme Q10, oxidized coenzyme Q10, reference compound] |  |  |  |  |  |  |  |  |  |  |  |  |  |  | skin repair promoting effect
